Assays:
[1] = after repeated administration (Evans and Stacpoole 1982); cited from earlier work
PDH = details: cited from earlier work

melting point | Compound | plasma glucose [1] | activity of PDH (PDH; after acute administration in animals (Vary et al., 1988)) | proportion of PDH in its active form (PDH; single administration, 150 mg/kg, intraperitoneally (Vary et al. 1988))
123 to 124 °C | Cc1cc(C(=O)c2ccccc2)ccc1NC(=O)C(C)(O)C(F)(F)F (centres unmarked) |  |  | 
121 to 122 °C | C[C@@](O)(C(=O)Nc1ccc(S(=O)(=O)c2ccccc2)cc1F)C(F)(F)F |  |  | 
 | O=C(O)C(Cl)Cl [DCA, dichloroacetic acid] | significant decrease in plasma glucose | increases the activity of PDH | increased the proportion of PDH in its active form

Source: patent US6369273B1, “Chemical compounds and their use to elevate pyruvate dehydrogenase activity” (AstraZeneca AB, priority 1998, dated 2002)
